Measurements published in patent publication US9169254B2, “Spiroimidazolone derivative” (Chugai Seiyaku Kabushiki Kaisha, priority 2009, dated 2015).

target: T1, human PTH1 receptor (Homo sapiens, UniProt Q03431); assay: In vitro cAMP signal activity in HKRK-B7 cells (LLC-PK1 cells overexpressing the human PTH1 receptor); type: cell-based; conditions: HKRK-B7 cells; compound at 1×10^−3 M; cAMP produced as percentage of that produced by hPTH(1-34) at 100 nM
T1 sequence (Q03431 27-593): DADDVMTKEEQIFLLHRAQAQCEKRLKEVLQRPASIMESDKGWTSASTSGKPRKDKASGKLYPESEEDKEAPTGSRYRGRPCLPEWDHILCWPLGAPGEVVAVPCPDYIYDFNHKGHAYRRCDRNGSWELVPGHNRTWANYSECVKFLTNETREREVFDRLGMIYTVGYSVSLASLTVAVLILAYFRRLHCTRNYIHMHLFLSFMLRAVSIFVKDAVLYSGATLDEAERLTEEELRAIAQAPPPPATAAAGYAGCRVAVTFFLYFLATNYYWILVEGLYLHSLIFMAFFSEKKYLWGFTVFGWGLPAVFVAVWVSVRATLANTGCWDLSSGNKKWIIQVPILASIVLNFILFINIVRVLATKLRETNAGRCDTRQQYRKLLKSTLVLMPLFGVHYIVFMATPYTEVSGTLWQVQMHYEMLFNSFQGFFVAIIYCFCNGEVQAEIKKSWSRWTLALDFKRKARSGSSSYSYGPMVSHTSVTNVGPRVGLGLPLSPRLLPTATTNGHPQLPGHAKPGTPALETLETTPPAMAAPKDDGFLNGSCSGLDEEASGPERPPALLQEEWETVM

cAMP production activity (%) | SMILES
79% | Cc1cc(N(CCF)C(N)=O)cc(C)c1CCS(=O)(=O)N1CCC2(CC1)N=C(C1CCC(CCC(F)(F)F)CC1)NC2=O (stereo not drawn) [Compound 818, 1-[3,5-dimethyl-4-(2-{4-oxo-2-[4-(3,3,3-trifluoro-propyl)-cyclohexyl]-1,3,8-triaza-spiro[4.5]dec-1-ene-8-sulfonyl}-ethyl)-phenyl]-1-(2-fluoro-ethyl)-urea]
68% | Nc1ccc(CCS(=O)(=O)N2CCC3(CC2)N=C(C2CCCCC2)NC3=O)c(C(F)(F)F)c1 [Compound 314, 8-[2-(4-amino-2-trifluoromethyl-phenyl)-ethanesulfonyl]-2-cyclohexyl-1,3,8-triaza-spiro[4.5]dec-1-en-4-one]
57% | O=C1NC(C2CCCCC2)=NC12CCN(S(=O)(=O)CCc1cc3nc[nH]c3cc1C(F)(F)F)CC2 [Compound 839, 2-cyclohexyl-8-[2-(6-trifluoromethyl-1H-benzimidazol-5-yl)-ethanesulfonyl]-1,3,8-triaza-spiro[4.5]dec-1-en-4-one]
106% | Cc1cc(S(=O)(=O)Nc2cccnc2)ccc1CCS(=O)(=O)N1CCC2(CC1)N=C(c1cccc(C(F)(F)F)c1)NC2=O [Compound 294, 3-methyl-4-{2-[4-oxo-2-(3-trifluoromethyl-phenyl)-1,3,8-triaza-spiro[4.5]dec-1-ene-8-sulfonyl]-ethyl}-N-pyridin-3-yl-benzenesulfonamide]
57% | O=C1NC(C2CCCCC2)=NC12CCN(S(=O)(=O)/C=C/c1cccc3c1ccn3C[C@H](O)CO)CC2 [Compound 191, 2-cyclohexyl-8-{(E)-2-[1-((S)-2,3-dihydroxy-propyl)-1H-indol-4-yl]-ethenesulfonyl}-1,3,8-triaza-spiro[4.5]dec-1-en-4-one]
80% | Cc1cc(CO)cc(C)c1/C=C/S(=O)(=O)N1CCC2(CC1)N=C(C1CCC(CCC(F)(F)F)CC1)NC2=O (stereo not drawn) [Compound 553, 8-[(E)-2-(4-hydroxymethyl-2,6-dimethyl-phenyl)-ethenesulfonyl]-2-[4-(3,3,3-trifluoro-propyl)-cyclohexyl]-1,3,8-triaza-spiro[4.5]dec-1-en-4-one]
51% | Cc1cc(C(=O)N2CC[C@H](N(C)C)C2)ccc1CCS(=O)(=O)N1CCC2(CC1)N=C(c1cccc(C(F)(F)F)c1)NC2=O [Compound 372, 8-{2-[4-((S)-3-dimethylamino-pyrrolidine-1-carbonyl)-2-methyl-phenyl]-ethanesulfonyl}-2-(3-trifluoromethyl-phenyl)-1,3,8-triaza-spiro[4.5]dec-1-en-4-one]
68% | Cc1cc(NCC(N)=O)ccc1/C=C/S(=O)(=O)N1CCC2(CC1)N=C(c1cccc(OC(F)(F)F)c1)NC2=O [Compound 529, 2-(3-methyl-4-{(E)-2-[4-oxo-2-(3-trifluoromethoxy-phenyl)-1,3,8-triaza-spiro[4.5]dec-1-ene-8-sulfonyl]-vinyl}-phenylamino)-acetamide]
14% | Cc1cc(N2C(=O)C[C@H](NC(=O)OC(C)(C)C)C2=O)ccc1/C=C/S(=O)(=O)N1CCC2(CC1)N=C(c1cccc(C(F)(F)F)c1)NC2=O [Compound 525, [(S)-1-(3-methyl-4-{(E)-2-[4-oxo-2-(3-trifluoromethyl-phenyl)-1,3,8-triaza-spiro[4.5]dec-1-ene-8-sulfonyl]-vinyl}-phenyl)-2,5-dioxo-pyrrolidin-3-yl]-carbamic acid tert-butyl ester]
84% | Cc1cc(C(=O)N2CCC(CO)CC2)cc(C)c1/C=C/S(=O)(=O)N1CCC2(CC1)N=C(c1ccc(F)c(OC(F)(F)F)c1)NC2=O [Compound 1161, 2-(4-Fluoro-3-trifluoromethoxy-phenyl)-8-{(E)-2-[4-(4-hydroxymethyl-piperidine-1-carbonyl)-2,6-dimethyl-phenyl]-ethenesulfonyl}-1,3,8-triaza-spiro[4.5]dec-1-en-4-one]
52% | O=C1NC(C2CCCCC2)=NC12CCN(S(=O)(=O)/C=C/c1cccc3c1ccn3CCN1CCOCC1)CC2 [Compound 192, 2-cyclohexyl-8-{(E)-2-[1-(2-morpholin-4-yl-ethyl)-1H-indol-4-yl]-ethenesulfonyl}-1,3,8-triaza-spiro[4.5]dec-1-en-4-one]
79% | Cc1cc(C(=O)O)cc(C)c1CCS(=O)(=O)N1CCC2(CC1)N=C(C1CCC(CCC(F)(F)F)CC1)NC2=O (stereo not drawn) [Compound 768, 3,5-dimethyl-4-(2-{4-oxo-2-[4-(3,3,3-trifluoro-propyl)-cyclohexyl]-1,3,8-triaza-spiro[4.5]dec-1-ene-8-sulfonyl}-ethyl)-benzoic acid]
92% | CCC[C@@H]1CCC[C@H](C2=NC3(CCN(S(=O)(=O)CCc4ccc(N5C(=O)CNC5=O)cc4C)CC3)C(=O)N2)C1 [Compound 949, 3-(3-methyl-4-{2-[4-oxo-2-((1S,3R)-3-propyl-cyclohexyl)-1,3,8-triaza-spiro[4.5]dec-1-ene-8-sulfonyl]-ethyl}-phenyl)-imidazolidine-2,4-dione]
102% | Cc1cc(C(=O)N(C)C)ccc1CCS(=O)(=O)N1CCC2(CC1)N=C(c1cccc(-c3ccccc3)c1)NC2=O [Compound 172, 4-[2-(2-biphenyl-3-yl-4-oxo-1,3,8-triaza-spiro[4.5]dec-1-ene-8-sulfonyl)-ethyl]-3,N,N-trimethyl-benzamide]
157% | O=C1NC(CCCCCCCCC(F)(F)F)=NC12CCN(S(=O)(=O)CCc1cccc3c1ccn3C[C@H](O)CO)CC2 [Compound 789, 8-{2-[1-((S)-2,3-dihydroxy-propyl)-1H-indol-4-yl]-ethanesulfonyl}-2-(9,9,9-trifluoro-nonyl)-1,3,8-triaza-spiro[4.5]dec-1-en-4-one]
33% | O=C1NC(C2CCCCC2)=NC12CCN(S(=O)(=O)/C=C/c1cccc3c1ccn3CCCCO)CC2 [Compound 478, 2-cyclohexyl-8-{(E)-2-[1-(4-hydroxy-butyl)-1H-indol-4-yl]-ethenesulfonyl}-1,3,8-triaza-spiro[4.5]dec-1-en-4-one]
30% | Cc1cc(CN2CCCC2=O)cc(C)c1CCS(=O)(=O)N1CCC2(CC1)N=C(C1CCC(C)CC1)NC2=O (stereo not drawn) [Compound 781, 8-{2-[2,6-dimethyl-4-(2-oxo-pyrrolidin-1-ylmethyl)-phenyl]-ethanesulfonyl}-2-(4-methyl-cyclohexyl)-1,3,8-triaza-spiro[4.5]dec-1-en-4-one]
67% | Cc1cc(S(=O)(=O)NCCN(C)C)ccc1/C=C/S(=O)(=O)N1CCC2(CC1)N=C(C1CCCCC1)NC2=O [Compound 503, 4-[(E)-2-(2-cyclohexyl-4-oxo-1,3,8-triaza-spiro[4.5]dec-1-ene-8-sulfonyl)-vinyl]-N-(2-dimethylamino-ethyl)-3-methyl-benzenesulfonamide]
55% | CC(=O)Nc1ccc(CCS(=O)(=O)N2CCC3(CC2)N=C([C@H]2CC[C@H](CCF)CC2)NC3=O)c(C)c1 [Compound 1061, N-[4-(2-{2-[4-(2-fluoro-ethyl)-cyclohexyl]-4-oxo-1,3,8-triaza-spiro[4.5]dec-1-ene-8-sulfonyl}-ethyl)-3-methyl-phenyl]-acetamide]
65% | CN(C)C(=O)Cn1ccc2c(/C=C/S(=O)(=O)N3CCC4(CC3)N=C(C3CCCCC3)NC4=O)cccc21 [Compound 193, 2-{4-[(E)-2-(2-cyclohexyl-4-oxo-1,3,8-triaza-spiro[4.5]dec-1-ene-8-sulfonyl)-vinyl]-indol-1-yl}-N,N-dimethyl-acetamide]
97% | Cc1cc(C(=O)N2CCC(C)(O)CC2)cc(C)c1CCS(=O)(=O)N1CCC2(CC1)N=C(c1ccc(F)c(OC(F)(F)F)c1)NC2=O [Compound 1335, 2-(4-fluoro-3-trifluoromethoxy-phenyl)-8-{2-[4-(4-hydroxy-4-methyl-piperidine-1-carbonyl)-2,6-dimethyl-phenyl]-ethanesulfonyl}-1,3,8-triaza-spiro[4.5]dec-1-en-4-one]
48% | Cc1cc(N(C)C(=O)N(C)C)cc(C)c1/C=C/S(=O)(=O)N1CCC2(CC1)N=C(c1cccc(OC(F)(F)F)c1)NC2=O [Compound 1013, 1-(3,5-Dimethyl-4-{(E)-2-[4-oxo-2-(3-trifluoromethoxy-phenyl)-1,3,8-triaza-spiro[4.5]dec-1-ene-8-sulfonyl]-vinyl}-phenyl)-1,3,3-trimethyl-urea]
18% | CO[C@H]1CC[C@H](C2=NC3(CCN(S(=O)(=O)c4cccc(Cl)c4)CC3)C(=O)N2)CC1 [Compound 25, 8-(3-chloro-benzenesulfonyl)-2-(4-methoxy-cyclohexyl)-1,3,8-triaza-spiro[4.5]dec-1-en-4-one]
69% | Cc1cc(C(=O)N(C)C)ccc1CCS(=O)(=O)N1CCC2(CC1)N=C(c1cccc(COCC(F)(F)F)c1)NC2=O [Compound 168, 3,N,N-Trimethyl-4-(2-{4-oxo-2-[3-(2,2,2-trifluoro-ethoxymethyl)-phenyl]-1,3,8-triaza-spiro[4.5]dec-1-ene-8-sulfonyl}-ethyl)-benzamide]
